We go through one compound from patent US10624947B2, “Bactericidal peptides and uses thereof” (INDIANA UNIVERSITY RESEARCH AND TECHNOLOGY CORPORATION, priority 2016, dated 2020).

For one data set, the system named is Pseudomonas aeruginosa. In kind it is cell-based.
In another data set the test system is V. vulnificus. Description: Iron-dextran septicemia model. In kind it is in vivo, mice (strain CD-1). The note with it: 10 or 20 μM intraperitoneally 1 h after V. vulnificus. The procedure:
(§1) FIGS. 23A, B show the efficacy and toxicity of modified peptides in mice. […] The survival of mice injected intraperitoneally with iron dextran at 48 h after intraperitoneal injection of 10 or 20 μM of the modified peptides. […] Vibrio vulnificus (V. v.) strain CMCP6 was injected at 1×10^6 CFU. […] All mice receive iron dextran by intraperitoneal injection. Where indicated, 1 h later 10^6 bacterial CFU in 100 μL was injected into the peritoneum (opposite side). 1 h later, 100 μL of the peptide at the indicated concentration was administered on the same side as the bacterial injection.
(§2) Since B22a was effective in preventing infection of V. vulnificus in a surgical incision model, we tested it for efficacy for systemic infection in a mouse septicemia model (1). Groups of mice (strain CD-1) were first injected with […], followed 1 h later with an intraperitoneal injection of 1×10e6 colony forming units of V. vulnificus strain […]. The B22a was then injected intraperitoneally 1 h later and morbidity was monitored hourly for two days.
PB22N and other modified peptides were tested in a septicemic mouse model. V. vulnificus is a highly-pathogenic bacterium, causing septicemia and high mortality. In mice injected intraperitoneally with V. vulnificus, the majority of the mice had to be euthanized within 24 h due to severe symptoms associated with septicemia (FIG. 23B). […]

Data set [1] can be described thus: Toxicity of peptides injected intraperitoneally. The note with it: intraperitoneal, 10 or 20 μM. In kind it is in vivo, mice. The procedure:
as §1, §2
PB22N and other modified peptides were tested in a septicemic mouse model. V. vulnificus is a highly-pathogenic bacterium, causing septicemia and high mortality. In mice injected intraperitoneally with V. vulnificus, the majority of the mice had to be euthanized within 24 h due to severe symptoms associated with septicemia (FIG. 23B). […] PB22N was effective in preventing mice from succumbing to systemic infection by the highly virulent V. vulnificus.

Data set [2] deals with twenty representative Gram-negative bacteria of the Enterobacteriacea. Description: MIC panel. In kind it is cell-based. The conditions noted are these: Table 10. An excerpt:
The lack of efficacy of B22a in inhibiting systemic bacterial infection may have been due to it not being sufficiently stable in vivo. Therefore, three peptides were synthesized that contain the B22 amino acid sequence with additional modifications. Peptide AB22a (SEQ ID No. 32) has an N-terminal acetyl group (CH3C(O)) and a C-terminal amide (NH2). Peptide AB22P (SEQ ID No. 33) has an N-terminal acetyl group and a C-terminal polyethyleneglycol (PEG) (PEG=conjugated 8-amino 3,6-dioxaoctanoic acid). Peptide PB22N (SEQ ID No. 34) has a PEG at the N-terminus. In vitro, PB22N was effective in inhibiting the growth of the majority of the Gram-negative bacteria of the Enterobacteriacea. […] PB22N was also efficacious in inhibiting antibiotic-resistant clinical isolates of Klebsiella pneumoniae (Table 11).

Converted amounts (≈) assume the structure as drawn. “Also recorded” adds a separate entry of the source. Square brackets hold non-standard residues; d marks the D form. Peptide text beside a SMILES is read from it. AEEA = NCCOCCOCC(=O)O

Description for Escherichia coli: (§3) Antimicrobial activity was determined using the broth microdilution method based on the general recommendation of the Clinical and Laboratory Standards Institute. Bacteria were grown in Mueller-Hinton broth at 37° C. until OD625 reached 0.06, and then bacteria were further diluted into 1:20 for later use. […] 10 microliter (μL) of diluted bacteria was mixed with 90 μL of peptides at varying concentrations followed by incubation at 37° C. for 16-18 hours. The MIC is the lowest peptide concentration at which visible growth was inhibited. The MIC value was determined at least twice in independent experiments and typically in 3-4 assays.
Description for Klebsiella pneumoniae: as §3
Description for Pseudomonas aeruginosa: as §3

`CC[C@H](C)[C@H](NC(=O)[C@@H](NC(=O)[C@@H]1CCCN1C(=O)[C@H](CO)NC(=O)[C@H](CC(C)C)NC(=O)[C@H](CCCCN)NC(=O)[C@H](CCCCN)NC(=O)[C@H](Cc1ccccc1)NC(=O)[C@H](CC(C)C)NC(=O)[C@H](CCCCN)NC(=O)[C@H](CCCCN)NC(=O)[C@H](CC(C)C)NC(=O)[C@H](CCCCN)NC(=O)[C@H](CCCCN)NC(=O)[C@H](CCCNC(=N)N)NC(=O)[C@H](Cc1ccccc1)NC(=O)COCCOCCN)C(C)C)C(=O)N1CCC[C@H]1C(=O)N[C@@H](CC(C)C)C(=O)N[C@@H](CC(C)C)C(=O)N[C@@H](CCCCN)C(=O)N[C@@H](CC(C)C)C(=O)NCC(N)=O` [PB22N] (H-[AEEA]FRKKLKKLFKKLSPVIPLLKLG-NH2): the Minimal inhibitory concentration with Pseudomonas aeruginosa, in the data set with Escherichia coli and in the data set with Klebsiella pneumoniae was 1 µM (≈ 2.74 µg/mL) in each case. Also, the “Outcome in mouse septicemia model” value with V. vulnificus was “survived and did not exhibit symptoms of infection”. Further, in data set [1], the “Toxicity signs in mice injected with peptide” value is on record as “no obvious symptoms were observed; also recorded: no obvious effects on mice behavior or appearance”. The “MICs relative to B22a” value in data set [2] is on record as “approximately two-fold better”.
